According to ChEMBL document CHEMBL1155556, “New macrolactins from a marine Bacillus sp. Sc026” (2000):

Columns and labels:
Assay type in all cases: functional
Conditions in all cases: read-out: IZ
Bacillus subtilis [1] = test: Antibacterial activity against Bacillus subtilis ATCC 6633 at 100 ug/disk by agar diffusion assay
Staphylococcus aureus [2] = test: Antibacterial activity against Staphylococcus aureus ATCC 25923 at 100 ug/disk by agar diffusion assay
Staphylococcus aureus [3] = test: Antibacterial activity against Staphylococcus aureus ATCC 25923 at 50 ug/disk by agar diffusion assay
Bacillus subtilis [4] = test: Antibacterial activity against Bacillus subtilis ATCC 6633 at 50 ug/disk by agar diffusion assay

| SMILES | zone of inhibition at 100 µg/disc (Bacillus subtilis [1]) [mm] | zone of inhibition at 100 µg/disc (Staphylococcus aureus [2]) [mm] | zone of inhibition at 50 µg/disc (Staphylococcus aureus [3]) [mm] | zone of inhibition at 50 µg/disc (Bacillus subtilis [4]) [mm] |
| --- | --- | --- | --- | --- |
| C[C@@H]1CCC/C=C/CCC(=O)C[C@@H](O)C/C=C\C=C\[C@@H](OC(=O)CCC(=O)O)C/C=C/C=C\C(=O)O1 | 9 | 8 |  |  |
| C[C@@H]1CCC/C=C/C=C/[C@H](O)C[C@@H](O)C/C=C\C=C\[C@@H](OC(=O)CCC(=O)O)C/C=C/C=C\C(=O)O1 [7-O-SUCCINYL MACROLACTIN A] |  |  | 24 | 10 |
| C[C@@H]1CCC/C=C/CCC(=O)C[C@@H](O)C/C=C\C=C\[C@@H](O)C/C=C/C=C\C(=O)O1 [MACROLACTIN F] | 8 | 28 |  |  |
